# According to patent US20210008104A1, “COMPOSITIONS AND METHODS FOR INHIBITING HIV-1 REVERSE TRANSCRIPTASE” (The United States of America, as represented by the …, priority 2017, published 2021):
# “Also recorded” adds a separate entry of the source.
# Legend:
# [1] = target: T1, pol β-nicked DNA complexes (Homo sapiens, UniProt P06746); experiment: Time-lapse crystallography of the reverse reaction
# T1 construct: made in house
# Procedure: Binary complex crystals with nicked DNA were grown as previously described43. The time-lapse crystallography was performed as before11 and is briefly summarized here. Binary pol β/DNA complex crystals were first transferred to a cryosolution containing 15% ethylene glycol, 50 mM imidazole, pH 7.5, 20% PEG3350, 90 mM sodium acetate, 2 mM PNP and 50 mM CaCl2) for 1 h. These ground state (GS) ternary complex crystals were then transferred to a cryosolution containing 200 mM MgCl2 for varying times. All reactions were stopped by freezing the crystals at 100K before data collection at the home source, 1.54 Å, or the Advanced Photon Source, 1.0 Å (Argonne National Laboratory). In house data collection was done on a SATURN92 CCD detector system mounted on a […] rotating anode generator. This allows for anomalous data detection after phasing by molecular replacement. […] Initial models were determined using molecular replacement with the open binary (PDB ID 3ISB) or closed ternary (PDB ID 2FMS) structures of pol β and all Rfree flags were taken from the starting model. […] The metal-ligand coordination restraints were generated by ReadySet (PHENIX) and not used until the final rounds of refinement. […] Ramachandran analysis determined 100% of nonglycine residues lie in allowed regions and at least 97% in favored regions.
# human DNA polymerase β [2] = target: T2, human DNA polymerase β (Homo sapiens, UniProt P06746); experiment: Removal of chain-terminated or mismatched primer termini by reverse reaction; format: biochemical; parameters: made in house; settings: G-A or G-T primer terminal mismatch
# Procedure: The removal of a terminated primer terminus by the reverse reaction required enzymatic synthesis of the nicked DNA substrate. A pre-incubated mixture of 4 μM pol and 0.4 μM one-nucleotide gapped DNA was mixed 1:1 (v/v) with 20 mM MgCl2 and 0.2 μM various triphosphates of chain-terminating nucleotides ([…], or dFdCTP). The gap-filling reaction proceeded at 37° C. for 10-20 min to generate a terminated nicked DNA substrate. An aliquot was removed and quenched to verify complete gap filling (16-mer). The reverse reaction was initiated by addition of an equal volume of 10 mM MgCl2 and 250 μM PPi or PNP. An aliquot (time=3 min) was removed, quenched, and analyzed on a denaturing gel. The removal of a terminal mismatch by a reverse reaction was followed by incubation of […] Pol with 100 nM 5'-^32P-labeled nicked DNA substrate with a matched (G-C) or mismatched (G-A or G-T) primer terminal base pair for 5 min at 37° C. This was mixed with a solution of 20 mM MgCl2 and 2 mM PPi or PNP (1:1, v/v) to initiate the reaction.
# human DNA polymerase β [3] = target: T2, human DNA polymerase β; settings: [32P]PPi into dCTP, slope/enzyme-DNA complex
# Procedure: Pyrophosphate exchange assay. Pol β (2.5 μM) was pre-incubated with 500 nM unlabeled nicked DNA substrate containing a matched primer terminal base pair (G-C, template-primer) in reaction buffer with 20 mM MgCl2 and manually mixed (1:1, v/v) with a prewarmed solution of reaction buffer, 2 mM [^32P] PPi, and 100 μM dCTP. Aliquots were withdrawn at various time points and quenched with 1 vol. of 0.3 M EDTA. Quenched reactions mixtures were applied to PEI cellulose plates and developed in 0.3 M potassium phosphate buffer, pH 8.0. Plates were scanned followed by quantitation using a phosphorimager and ImageQuant software.
# human DNA polymerase β [4] = target: T2, human DNA polymerase β; experiment: Overall equilibrium constant determination (gapped vs nicked DNA); format: biochemical; parameters: made in house; settings: dCTP
# Procedure: A mixture of 500 nM pol β with single-nucleotide gapped DNA (pol/DNA=10; templating G or C) containing various concentrations of PPi (500-2,000 μM) or PNP (20, 50, 100 μM) was mixed with an equal volume of 20 mM MgCl2 containing 60-100 nM dCTP or 50 μM dGMPPNP and incubated at 37° C. for various time intervals. Aliquots (10 μl) were withdrawn at various times and quenched with an equal volume of 0.3 M EDTA. The reactions were quenched after 10-80 s and reaction products separated on a sequencing gel. The substrate (gapped DNA) and product (nicked DNA) bands were quantitated, and the overall equilibrium constant calculated; Keq=[nicked DNA][PPi]/[gapped DNA][dCTP] or [nicked DNA] [PNP]/[gapped DNA][dGMPPNP]. The mean and standard error for 6 independent determinations are reported in the text.
# human DNA polymerase β [5] = target: T2, human DNA polymerase β; experiment: Single-turnover analysis of reverse reaction (pyrophosphorolysis / PNP-dependent) on nicked DNA; format: biochemical; parameters: made in house
# Procedure: Reaction buffer. All kinetic measurements were performed in a buffer containing 50 mM MES, 25 mM Tris, 25 mM ethanolamine (pH 7.5 adjusted at 37° C.), 100 mM KCl, 10 mM MgCl2 supplemented with 10% glycerol, 100 μg/ml bovine serum albumin, 1 mM DTT, and 0.1 mM EDTA. […] DNA polymerase β was used to fill a 1-nucleotide gapped DNA substrate with either [^32P] dCTP or [^35S] dATP to create a 3'-radiolabeled nicked DNA substrate. The reaction mixture contained 50 mM Tris-Cl, pH 7.4 (37° C.), 100 mM KCl, 10 mM MgCl2, 1 mM DTT, 2.5 μM gapped DNA, […] [^32P] dCTP or [^35S] dATP. The single-nucleotide DNA substrate was similar to the nicked substrate described above, except the primer strand was one nucleotide shorter (3'-nucleotide deleted). Gap filling was initiated by addition of pol β and incubated at 37° C. for 5-10 min. The reaction was quenched by addition of 0.5 M EDTA (0.1 vol). To remove enzyme and unincorporated nucleotides, the mixture was extracted with phenol-chloroform-isoamyl alcohol (25:24:1) followed by two passages through BioSpin 6 columns. Aliquots of the labeling reaction were removed before and following the extraction and removal steps to determine final DNA substrate concentration. Pre- and post-aliquots (1 μl) were spotted onto PEI cellulose plates and developed in 0.375 M KH2PO4, pH 4.0. The ratio (post/preextraction) was used to correct the initial DNA concentration for loss or dilution of substrate. Kinetic parameters for the reverse reaction were determined under single turnover conditions (E/DNA=10) at 37° C. […] Time courses were initiated by mixing with an equal volume of a 20 mM MgCl2 and 50 μM dNTP trap solution in reaction buffer. The dNTP trap prevents re-insertion of radiolabeled product dNTP and corresponds to the identity of the nucleotide triphosphate produced during the reaction. […] EDTA (0.1 or 0.2 M) was used as the quenching agent. Substrates and products were resolved by TLC in either 0.2 or 0.3 M NaPi, pH 7.0 buffer. Kinetic analysis. Single-turnover time courses were fit to a single exponential equation to yield the first-order rate constants (kobs) at a given concentration of GMPPNP, PPi or PNP. Under these conditions, kobs was dependent on the concentration of substrate. A secondary plot of the concentration dependence of kobs was hyperbolic and fitted by nonlinear least-squares method to equation (1) where kmax is the intrinsic rate constant for the step limiting the first nucleotide insertion (forward reaction) or removal (reverse reaction). kobs=kmax[S]/[…] (1) […] Unless noted, kinetic constants represent best-fit parameters and their standard error.
# human DNA polymerase β [6] = target: T2, human DNA polymerase β; experiment: Qualitative reverse reaction assay with PPi analogs; format: biochemical; parameters: made in house; settings: 1 mM PPi analog, 10 mM MgCl2, 5′-32P-labeled nicked DNA
# Procedure: Reverse reaction assay. Pol β (1 μM) was pre-incubated with 100 nM nicked DNA containing either a matched or mismatched primer terminus for 5 min at 37° C. in reaction buffer. A solution with 20 mM MgCl2 containing 2 mM PPi or pyrophosphate analog in reaction buffer was used to initiate the reaction. Following mixing, the final concentrations were 500 nM pol β, 50 nM nicked DNA, 10 mM MgCl2, and 1 mM PPi or pyrophosphate analog. Aliquots (5 or 10 μl) were removed at various times and quenched in an equal volume of 0.3 M EDTA, pH 8.0. Reaction substrates and products were separated and visualized as described above.
# human DNA polymerase β [7] = target: T2, human DNA polymerase β; experiment: Gap filling DNA synthesis kinetic assay (single-turnover insertion); format: biochemical; parameters: made in house
# Procedure: Gap filling DNA synthesis kinetic assay. To measure the rate of the first insertion (kpol) and apparent equilibrium nucleotide dissociation constant (Kd), single-turnover kinetic assays (enzyme/DNA=10) were performed as described previously. Briefly, a pre-incubated solution of enzyme and DNA was rapidly mixed with various concentrations of MgCl2 and dGMPPNP using a Kintek RQF-3 rapid quench-flow. Reactions were quenched with 0.25 M EDTA.
# where S=dGMPPNP, PPi, or PNP. For the insertion of dGMPPNP, the secondary plot was fit to a quadratic equation (equation (2)) due to its high affinity relative to the enzyme concentration.
# kobs=(kpol)(((Kd+[dGMPPNP]+[EDNA])((Kd+[dGMPPNP]+[EDNA])^2)−(4[dGMPPNP][EDNA]))^0.5)/2[EDNA] (2)
# [8] = single-turnover gap filling, relative to natural nucleotide
compound,measurement,setting,value
"O=P(O)(O)NP(=O)(O)O [PNP, imidodiphosphate]",complexes that had undergone a reverse reaction (occupancy refinement),[1]; short Mg2+ soak of PNP-Ca2+ ternary complex crystals,approximately 40%
"O=P(O)(O)OP(=O)(O)O [PPi, pyrophosphate]",removal of a 3′ mismatched nucleotide,human DNA polymerase β [2],very poor
same,observed rate for the exchange reaction,human DNA polymerase β [3],0.028 s⁻¹
same,reverse reaction in crystals,[1]; binary pol β-nicked DNA crystals soaked with ligand,did not generate dNTP
same,calculated equilibrium constant,human DNA polymerase β [4]; 1000 μM PPi,"62,700"
same,calculated equilibrium constant,human DNA polymerase β [4]; 2000 M PPi,"82,300"
same,overall equilibrium constant Keq,"human DNA polymerase β [4]; different PPi concentrations, mean and standard error of 6 determinations","68,700±7,200"
same,kobs for removal of 32P-labeled dAMP,"human DNA polymerase β [5]; 1 mM PPi, 3′-[32P]dAMP primer terminus, single-turnover",0.030 s⁻¹
same,kobs for removal of 35S-labeled dAMP,"human DNA polymerase β [5]; 1 mM PPi, 3′-[35S]dAMP (phosphorothioate) primer terminus, single-turnover",0.039 s⁻¹
same,Kd,"human DNA polymerase β [5]; nicked DNA with 3′-[32P]dCMP, single-turnover, secondary plot of kobs, read-out: apparent PPi binding affinity (Kd)",~90 µM
same,observed rate constant for the reverse reaction (krev),"human DNA polymerase β [5]; nicked DNA, single-turnover (enzyme/DNA>1)",~0.03 s⁻¹
same,phosphorothioate (thio-elemental) effect krev(O)/krev(S),human DNA polymerase β [5]; removal of 3′-terminal Rp-phosphorothioate nucleotide vs dAMP,no phosphorothioate elemental effect
O=P(O)(O)C(Cl)(Cl)P(=O)(O)O [clodronate],ability to serve as substrate for the reverse reaction (qualitative),human DNA polymerase β [6],poor
"Nc1nc2c(ncn2[C@H]2C[C@H](O)[C@@H](COP(=O)(O)OP(=O)(O)NP(=O)(O)O)O2)c(=O)[nH]1 [dGMPPNP, 2′-deoxyguanosine-5′-[(β, γ)-imido]triphosphate]",inhibition of the forward reaction,human DNA polymerase β [7]; binds tightly and is inserted slowly,good inhibitor
same,binding affinity,human DNA polymerase β [7]; [8],increased
same,rate of insertion,human DNA polymerase β [7]; [8],strongly diminished; also recorded: two orders of magnitude
CC(O)(P(=O)(O)O)P(=O)(O)O [etidronate],ability to serve as substrate for the reverse reaction (qualitative),human DNA polymerase β [6],moderate
NCCC(O)(P(=O)(O)O)P(=O)(O)O [pamidronate],ability to serve as substrate for the reverse reaction (qualitative),human DNA polymerase β [6],poor
